Values of other authors as cited in US20070232597A1, “Compounds, Compositions, and Methods” (priority 2003, published 2007).

Test system: A549 cells
Details: data provided by National Cancer Institute, Developmental Therapeutic Program
In the case of `COc1cccc2c1C(=O)c1c(O)c3c(c(O)c1C2=O)C[C@@](O)(C(=O)CO)C[C@@H]3O[C@H]1C[C@H](N)[C@H](O)[C@H](C)O1` [doxorubicin], the GI50 is given as 63 nM. For `O=c1[nH]cc(F)c(=O)[nH]1` [5-fluorouracil], the GI50 is given as 1000 nM. In the case of `NC(=O)NO` [hydroxyurea], the GI50 is given as 500000 nM. In the case of `CC(=O)O[C@H]1C(=O)[C@@]2(C)[C@H]([C@H](OC(=O)c3ccccc3)[C@]3(O)C[C@H](OC(=O)[C@H](O)[C@@H](NC(=O)c4ccccc4)c4ccccc4)C(C)=C1C3(C)C)[C@]1(OC(C)=O)CO[C@@H]1C[C@@H]2O` [paclitaxel], the GI50 is given as 4 nM.
